Measurements: US8895585B2, “Nicotinamide derivative or salt thereof” (FUJIFILM Corporation, priority 2010, dated 2014)

How the values were obtained:
[1] = target: T1, glutathione S-transferase (GST)-fused full-length human Syk protein (Homo sapiens, UniProt P43405); test: Syk enzyme assay; assay type: biochemical; conditions: Syk enzyme assay, Test Example 1; read-out: IC50 of Syk-inhibitory activity
T1 construct: (GST)-fused full-length human Syk protein; GST (glutathione S-transferase); purchased Carna Biosciences
Summary of the method: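 IC50 values come from a time-resolved FRET readout (615 and 665 nm) of substrate phosphorylation, measured after an EDTA stop and 1 h antibody binding. The kinase reaction ran 40 min at room temperature with 27 μM ATP and 0.4 μM biotin-peptide, following a 15 min compound preincubation with baculovirus-made GST-full-length human Syk.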

THP-1 cells = test: TNFα generation assay; assay type: cell-based, human; conditions: Homo sapiens, THP-1, THP-1 cells; Table 22; read-out: IC50 in TNFα generation assay
Summary of the method: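 THP-1 cells differentiated to macrophage-like cells with 10 ng/ml IFN-γ for 2 days, preincubated with compound 30 min at room temperature, then cultured 7 h on plates coated with human IgG (10 μg/ml). Secreted TNFα measured by ELISA or AlphaLISA.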

SMILES	IC50 [1] [nM]	IC50 (THP-1 cells) [nM]
NC(=O)c1cc(F)c(N[C@@H]2CCCC[C@@H]2N)nc1Nc1ccc(N2CCOC2=O)nc1 [Example 006-537, 6-(((1R,2S)-2-aminocyclohexyl)amino)-5-fluoro-2-((6-(2-oxooxazolidin-3-yl)pyridin-3-yl)amino)nicotinamide]	10 to 50	65 to 130
CCc1nn(C)c2ccc(Nc3nc(N[C@H](CC)[C@H](C)N)c(F)cc3C(N)=O)cc12 [Example 006-539, 6-(((2S,3R)-2-aminopentan-3-yl)amino)-2-((3-ethyl-1-methyl-1H-indazol-5-yl)amino)-5-fluoronicotinamide]	< 10	130 to 200
CC[C@@H](Nc1nc(Nc2ccc3c(c2)c(C(C)C)nn3C)c(C(N)=O)cc1F)[C@H](C)N [Example 006-543, 6-(((2S,3R)-2-aminopentan-3-yl)amino)-5-fluoro-2-((3-isopropyl-1-methyl-1H-indazol-5-yl)amino)nicotinamide]	< 10	65 to 130
Cn1nc(C2CC2)c2cc(Nc3nc(N[C@@H]4CCCC[C@@H]4N)c(F)cc3C(N)=O)ccc21 [Example 006-544, 6-(((1R,2S)-2-aminocyclohexyl)amino)-2-((3-cyclopropyl-1-methyl-1H-indazol-5-yl)amino)-5-fluoronicotinamide]	< 10	65 to 130
CC(C)C[C@@H](Nc1nc(Nc2ccc3c(c2)c(C2CC2)nn3C)c(C(N)=O)cc1F)[C@H](C)N [Example 006-546, 6-(((2S,3R)-2-amino-5-methylhexan-3-yl)amino)-2-((3-cyclopropyl-1-methyl-1H-indazol-5-yl)amino)-5-fluoronicotinamide]	< 10	130 to 200
CCn1nc(C2CC2)c2cc(Nc3nc(N[C@H](CC(C)C)[C@H](C)N)c(F)cc3C(N)=O)ccc21 [Example 006-550, 6-(((2S,3R)-2-amino-5-methylhexan-3-yl)amino)-2-((3-cyclopropyl-1-ethyl-1H-indazol-5-yl)amino)-5-fluoronicotinamide]	< 10	130 to 200
COCCOc1ncc(Nc2nc(N[C@@H]3CCCC[C@@H]3N)c(F)cc2C(N)=O)cc1F [Example 006-552, 6-(((1R,2S)-2-aminocyclohexyl)amino)-5-fluoro-2-((5-fluoro-6-(2-methoxyethoxy)pyridin-3-yl)amino)nicotinamide]	10 to 50	65 to 130
NC(=O)c1cc(F)c(N[C@@H]2CCCC[C@@H]2N)nc1Nc1cnc(C2CC2)c(F)c1 [Example 006-553, 6-(((1R,2S)-2-aminocyclohexyl)amino)-2-((6-cyclopropyl-5-fluoropyridin-3-yl)amino)-5-fluoronicotinamide]	< 10	130 to 200
CCc1ncc(Nc2nc(N[C@@H]3CCCC[C@@H]3N)c(F)cc2C(N)=O)cc1F [Example 006-554, 6-(((1R,2S)-2-aminocyclohexyl)amino)-2-((6-ethyl-5-fluoropyridin-3-yl)amino)-5-fluoronicotinamide]	10 to 50	130 to 200
CCn1ncc2cc(Nc3nc(N[C@H](c4ccc(F)cc4)[C@H](C)N)c(F)cc3C(N)=O)ccc21 [Example 006-555, 6-(((1R,2S)-2-amino-1-(4-fluorophenyl)propyl)amino)-2-((1-ethyl-1H-indazol-5-yl)amino)-5-fluoronicotinamide]	< 10	65 to 130
COc1cc(Nc2nc(N[C@H](c3ccc(F)cc3)[C@H](C)N)c(F)cc2C(N)=O)ccn1 [Example 006-556, 6-(((1R,2S)-2-amino-1-(4-fluorophenyl)propyl)amino)-5-fluoro-2-((2-methoxypyridin-4-yl)amino)nicotinamide]	< 10	65 to 130
Cc1cc(Nc2nc(N[C@H](c3ccc(F)cc3)[C@H](C)N)c(F)cc2C(N)=O)cnc1C [Example 006-558, 6-(((1R,2S)-2-amino-1-(4-fluorophenyl)propyl)amino)-2-((5,6-dimethylpyridin-3-yl)amino)-5-fluoronicotinamide]	< 10	65 to 130
COCCOc1cc(Nc2nc(N[C@H](c3ccc(F)cc3)[C@H](C)N)c(F)cc2C(N)=O)ccn1 [Example 006-559, 6-(((1R,2S)-2-amino-1-(4-fluorophenyl)propyl)amino)-5-fluoro-2-((2-(2-methoxyethoxy)pyridin-4-yl)amino)nicotinamide]	< 10	65 to 130
COc1ncc(Nc2nc(N[C@@H]3CCCC[C@@H]3N)c(F)cc2C(N)=O)cc1N1CCOCC1 [Example 006-564, 6-(((1R,2S)-2-aminocyclohexyl)amino)-5-fluoro-2-((6-methoxy-5-mopholinopyridin-3-yl)amino)nicotinamide]	100 to 1000	65 to 130
CCOc1ncc(Nc2nc(N[C@@H]3CCCC[C@@H]3N)c(F)cc2C(N)=O)cc1N1CCOCC1 [Example 006-565, 6-(((1R,2S)-2-aminocyclohexyl)amino)-2-((6-ethoxy-5-morpholinopyridin-3-yl)amino)-5-fluoronicotinamide]	100 to 1000	65 to 130
COCCOc1ncc(Nc2nc(N[C@@H]3CCCC[C@@H]3N)c(F)cc2C(N)=O)cc1-n1cccn1 [Example 006-575, 6-(((1R,2S)-2-aminocyclohexyl)amino)-2-((6-(2-methoxyethoxy)-5-(1H-pyrazol-1-yl)pyridin-3-yl)amino)-5-fluoronicotinamide]	10 to 50	130 to 200
CCn1ncc2c(Nc3nc(N[C@H](C4CC4)[C@H](C)N)c(F)cc3C(N)=O)cccc21 [Example 006-576, 6-(((1R,2S)-2-amino-1-cyclopropylpropyl)amino)-2-((1-ethyl-1H-indazol-4-yl)amino)-5-fluoronicotinamide]	< 10	< 65
CCc1nn(CC)c2ccc(Nc3nc(N[C@H](C4CC4)[C@H](C)N)c(F)cc3C(N)=O)cc12 [Example 006-579, 6-(((1R,2S)-2-amino-1-cyclopropylpropyl)amino)-2-((1,3-diethyl-1H-indazol-5-yl)amino)-5-fluoronicotinamide]	< 10	65 to 130

Results, then the compound that gave them:

IC50 [1] [nM]	IC50 (THP-1 cells) [nM]	SMILES
< 10	130 to 200	CCc1nn(CC)c2ccc(Nc3nc(N[C@H](CC)[C@H](C)N)c(F)cc3C(N)=O)cc12 [Example 006-541, 6-(((2S,3R)-2-aminopentan-3-yl)amino)-2-((1,3-diethyl-1H-indazol-5-yl)amino)-5-fluoronicotinamide]
< 10	65 to 130	C[C@H](N)[C@@H](CC1CC1)Nc1nc(Nc2ccc3c(c2)c(C2CC2)nn3C)c(C(N)=O)cc1F [Example 006-545, 6-(((2R,3S)-3-amino-1-cyclopropylbutan-2-yl)amino)-2-((3-cyclopropyl-1-methyl-1H-indazol-5-yl)amino)-5-fluoronicotinamide]
< 10	65 to 130	CC[C@@H](Nc1nc(Nc2ccc3c(c2)c(C2CC2)nn3C)c(C(N)=O)cc1F)[C@H](C)N [Example 006-547, 6-(((2S,3R)-2-aminopentan-3-yl)amino)-2-((3-cyclopropyl-1-methyl-1H-indazol-5-yl)amino)-5-fluoronicotinamide]
< 10	65 to 130	CCn1nc(C2CC2)c2cc(Nc3nc(N[C@@H]4CCCC[C@@H]4N)c(F)cc3C(N)=O)ccc21 [Example 006-548, 6-(((1R,2S)-2-aminocyclohexyl)amino)-2-((3-cyclopropyl-1-ethyl-1H-indazol-5-yl)amino)-5-fluoronicotinamide]
< 10	130 to 200	CC[C@@H](Nc1nc(Nc2ccc3c(c2)c(C2CC2)nn3CC)c(C(N)=O)cc1F)[C@H](C)N [Example 006-551, 6-(((2S,3R)-2-aminopentan-3-yl)amino)-2-((3-cyclopropyl-1-ethyl-1H-indazol-5-yl)amino)-5-fluoronicotinamide]
< 10	130 to 200	COc1cc(Nc2nc(N[C@H](c3ccc(F)cc3)[C@H](C)N)c(F)cc2C(N)=O)cc(OC)n1 [Example 006-557, 6-(((1R,2S)-2-amino-1-(4-fluorophenyl)propyl)amino)-2-((2,6-dimethoxypyridin-4-yl)amino)-5-fluoronicotinamide]
< 10	130 to 200	CC[C@@H](Nc1nc(Nc2ccc3c(c2)c(N2CCOCC2)nn3C)c(C(N)=O)cc1F)[C@H](C)N [Example 006-563, 6-(((2S,3R)-2-aminopentan-3-yl)amino)-5-fluoro-2-((1-methyl-3-morpholino-1H-indazol-5-yl)amino)nicotinamide]
10 to 50	130 to 200	CCOc1ncc(Nc2nc(N[C@@H]3CCCC[C@@H]3N)c(F)cc2C(N)=O)cc1F [Example 006-572, 6-(((1R,2S)-2-aminocyclohexyl)amino)-2-((6-ethoxy-5-fluoropyridin-3-yl)amino)-5-fluoronicotinamide]
< 10	< 65	C[C@H](N)[C@H](Nc1nc(Nc2ccc3c(c2)c(F)nn3C)c(C(N)=O)cc1F)C1CC1 [Example 006-577, 6-(((1R,2S)-2-amino-1-cyclopropylpropyl)amino)-2-((3-fluoro-1-methyl-1H-indazol-5-yl)amino)-5-fluoronicotinamide]
< 10	65 to 130	CCc1nn(C)c2ccc(Nc3nc(N[C@H](C4CC4)[C@H](C)N)c(F)cc3C(N)=O)cc12 [Example 006-578, 6-(((1R,2S)-2-amino-1-cyclopropylpropyl)amino)-2-((3-ethyl-1-methyl-1H-indazol-5-yl)amino)-5-fluoronicotinamide]
